Series [1] deals with BMDCs. The experiment in a line: Genome-wide mRNA profiles (microarray) of BMDCs treated with BI 2536 or DMSO before LPS or poly(I:C). It is filed as cell-based, mouse. The following applies: for antiviral genes among genes repressed by BI 2536 compared to DMSO: at least 3-fold change.
Series [2] concerns BMDCs. The experiment in a line: IFN-β ELISA of BMDC culture supernatants. The following applies: BMDC supernatant, LPS 6 h; 1 μM. It counts as cell-based, mouse. The procedure: Cell culture supernatants were assayed using a sandwich ELISA kit for mouse IFN-β (PBL Biomedical Laboratories).
For series [3], the system named is BMDCs. The experiment in a line: BMDC viability (Alamar blue). It is filed as cell-based, mouse. The following applies: treatment pre-stimulation.
Series [4] deals with BMDCs. Nature of the series: Cell cycle analysis (propidium iodide DNA content, flow cytometry). The following applies: propidium iodide DNA content after 0, 6, 12 h treatment. It counts as cell-based, mouse. The procedure:
Cells were fixed in ethanol, washed, and stained for 30 min at room temperature (RT) with propidium iodide (100 μg/mL) prepared in PBS (calcium- and magnesium-free) supplemented with RNAse A (2 mg/mL; Novagen) and triton X-100 (0.1%). Samples were analyzed for DNA content using an Accuri C6 flow cytometer (Accuri) and data was processed using the FlowJo software (Treestar).
For orientation: In flow cytometry, cells or beads pass a laser one at a time.

In series [5] the test system is IRF3. Nature of the series: IRF3 nuclear translocation by confocal microscopy, BMDCs on silicon nanowires. It is filed as cell-based, mouse. As for the experimental part: (§1) BMDCs were plated on top of etched silicon nanowires (Si NWs) coated with small molecules (Shalek et al., 2010). After 24 hours, cells were stimulated with LPS or poly(I:C), and then fixed in 4% formaldehyde in PBS (RT, 10 min). After fixation, each sample was permeabilized with 0.25% Triton-X 100 in PBS (RT, 10 min), incubated with Image-iT FX Signal Enhancer (RT, 30 min), and then blocked with 10% goat serum and 0.25% Triton-X 100 in PBS (RT, 1 hour). After washing, the samples were placed in 3% IgG-Free BSA & 0.25% Triton-X 100 in PBS that contained primary antibodies against either IRF3 or NF-κB P65 (1:175 dilution) and then rocked overnight at 4° C. The following day, the samples were washed with PBS and then incubated with an Alexa Fluor labeled secondary antibody (1:250 dilution) in 3% IgG-Free BSA & 0.25% Triton-X 100 in PBS (RT, 60 min). After washing with PBS, the samples were counterstained with 300 ng/mL of DAPI in PBS (RT, 30 min). For each experiment, every stimulus-molecule combination was prepared in triplicate. Once fixed, samples were imaged using an upright confocal microscope (Olympus). For each captured image, the nuclear fraction of the fluorescent protein was calculated after identifying nuclear boundaries using DAPI. Finally, distributions for this quantity across different conditions were compared using a one-way ANOVA analysis.

Series [6] deals with NF-κB p65. The experiment in a line: NF-κB p65 nuclear translocation by confocal microscopy, BMDCs on silicon nanowires. The following applies: nanowire-mediated delivery; LPS 30 min. It counts as cell-based, mouse. The procedure:
as §1

The test system of series [7] is conventional DCs (GM-CSF-induced BMDCs). It counts as cell-based, mouse.
Series [8] concerns VSV. It is filed as in vivo, mouse. The following applies: mice, VSV intra-footpad, 6 hours post-infection.
Series [9] has as its system primary mouse lung fibroblasts (MLFs). The following applies: 1 μM.
The conditions of series [10]: mouse, in vivo; cited from earlier work.
For series [11] the following is noted: humans (Mross et al., 2008); cited from earlier work.
In series [12] the test system is BMDCs. Nature of the series: qPCR of antiviral and inflammatory gene mRNAs in TLR-stimulated BMDCs. The following applies: for transcription of mRNAs for antiviral cytokines (Ifnb1, Cxcl10): inhibitor 1 hour prior to stimulation. For orientation: Quantitative PCR measures a nucleic acid by following its amplification.
Series [13] has as its system BMDCs. The experiment in a line: SILAC-based phosphoproteomics of LPS-stimulated BMDCs pre-treated with BI 2536 versus DMSO.
The subject of series [14] is pDCs (Flt3L-induced BMDCs). The experiment in a line: qPCR and nCounter mRNA measurement in plasmacytoid DCs stimulated with CpG-A, CpG-B or EMCV. The following applies: 1 μM.
Where [15] appears, read: BMDCs, LPS, increasing amounts of BI 2536, dose-dependent.
[16] abbreviates: DCs stimulated with LPS, poly(I:C) or Pam3CSK4, 1 μM.

The text below walks through data of patent US20180289709A1, “METHODS OF TREATING INFLAMMATION” (priority 2010, published 2018).

Entries after “also recorded” stand apart in the source; their conditions may differ. Where two headings read alike, the source gives them in different places.

As to `CC[C@@H]1C(=O)N(C)c2cnc(Nc3ccc(C(=O)NC4CCN(C)CC4)cc3OC)nc2N1C1CCCC1` [BI 2536], the “antiviral genes among genes repressed by BI 2536 compared to DMSO” value in series [1] (LPS) is recorded as 67/194. In series [1] (downregulated 3-fold upon LPS or poly(I:C) stimulation), the “unique LPS- and/or poly(I:C)-induced genes repressed” value is on record as 311 genes. Moreover, the “antiviral genes among genes repressed by BI 2536 compared to DMSO” value in [1] (poly(I:C), P<1×10^−71, hypergeometric test) is 99/193. The “secreted IFN-β (ELISA)” value in series [2] is given as “reduced; also recorded: strongly inhibits”. In series [3], the “viability of BMDCs” value is given as “neither impacted”. In addition, the “cell cycle state of BMDCs” value in series [4] was “neither impacted”. In series [5] (nanowire-mediated delivery, poly(I:C) 2 h or LPS 45 min, dose-dependent), the IRF3 nuclear translocation result is “inhibited”. The “IRF3 translocation, delivery in solution” value in [5] (poly(I:C) 2 h, lesser extent than nanowire-mediated delivery) was “decreased”. Moreover, the “NF-κB p65 localization” value in series [6] is “did not affect”. Besides, in series [7], the “mRNA level of Cxcl1” value is recorded as “neither affected”. The “transcription of antiviral genes (Ifnb1 and Cxcl10)” value in series [7] (1 μM) is on record as “inhibited”. For the same molecule, in series [8], the “Ifna2 mRNA (type I IFN α2) in popliteal lymph nodes” value is given as “inhibits” and the “VSV replication in the lymph node (VSV RNA levels)” value is on record as “rapidly increased”. Moreover, the “antiviral cytokine mRNA (Ifnb1, Cxcl10) in popliteal lymph nodes” value in series [8] (500 μg i.v. and 50 μg footpad) is given as “strongly suppressed; also recorded: inhibits”. Further, in [9], the “drug-induced toxicity (cell viability, CellTiter-Glo)” value is reported as “not due to drug-induced toxicity” and the “interferon production (Ifnb1 mRNA)” value was “failed to produce interferon”. For the same molecule, in series [10], the tolerability entry is “good tolerability”. Moreover, the tolerability result in series [11] is listed as “good tolerability”. For the same molecule, the “Cxcl1 expression (qPCR)” value in [12] (BMDCs, LPS, increasing amounts of BI 2536) is on record as “not significantly affected”. For the same molecule, in series [12] (setting [15]), the “Cxcl10 mRNA level (qPCR)” value was “reduced” and the “Ifnb1 mRNA level (qPCR)” value is reported as “reduced”. Besides, in series [12] (setting [16]), the “expression of 12 well-studied antiviral genes (qPCR)” value was “strongly inhibited” and the “inflammatory gene expression (qPCR)” value is listed as “remained largely unaffected”. In series [13] (LPS), the “phosphorylation levels of Jun family cell cycle regulators (Jund)” value is recorded as “decreased”; the “phosphorylation levels of mitotic kinases Nek6 and Nek7” value is recorded as “decreased”; the “phosphorylation levels of proteins in the TBK1/IKK-ε/IRF3 axis” value is “unchanged”. In series [13] (LPS 30 or 120 min, 1 μM), the “distinct proteins from which the changed phosphopeptides derive” value was 413 proteins and the “phosphopeptides with significant (P<0.001) change in level” value is listed as 510 phosphopeptides. In addition, in [14] (6 h), the “CpG-B-specific signature genes (nCounter)” value is recorded as “a minor effect, if any”; the “signature genes induced by CpG-A alone or by both CpG-A and -B (nCounter)” value was “repressed”. For the same molecule, the “transcription of mRNAs for Ifnb1, Ifna2 and Cxcl10” value in series [14] (CpG-A stimulation or EMCV infection (MOI 10)) was “nearly abrogated”. Also, in series [14] (CpG-B), the “Cxcl1 mRNA” value is recorded as “moderately increasing” and the “Cxcl10 mRNA” value is given as “decreased”.

Consider `COc1ccc(Br)cc1/C=c1\sc2nc(=O)c(C)nn2c1=O` [Poloxipan], for which the “transcription of mRNAs for antiviral cytokines (Ifnb1, Cxcl10)” value in series [12] (BMDCs, LPS) was “abrogate”.

On to `COc1cc2ncn(-c3cc(OCc4ccccc4C(F)(F)F)c(C(N)=O)s3)c2cc1OC` [5-(5,6-Dimethoxy-1H-benzimidazol-1-yl)-3-[[2-(trifluoromethyl)phenyl]methoxy]-2-thiophenecarboxamide], for which the “transcription of mRNAs for antiviral cytokines (Ifnb1, Cxcl10)” value in [12] (BMDCs, LPS) is given as “abrogate”.
